Measurements published in patent publication US7223766B2, “Bi-cyclic pyrimidine inhibitors of TGFβ” (Scios, Inc., priority 2003, dated 2007).

Experiments:
TGF R1 kinase = molecular target: T1, TGF R1 kinase (Homo sapiens, UniProt P36897); assay: TGF-β inhibition assay: phosphorylation of the substrate casein by TGF R1 kinase; format: biochemical; details: table names no assay; casein assay of Example 2: 2.5 μM ATP, 100 μM casein, 6.4 nM TGF R1 kinase
T1 sequence (P36897 34-503): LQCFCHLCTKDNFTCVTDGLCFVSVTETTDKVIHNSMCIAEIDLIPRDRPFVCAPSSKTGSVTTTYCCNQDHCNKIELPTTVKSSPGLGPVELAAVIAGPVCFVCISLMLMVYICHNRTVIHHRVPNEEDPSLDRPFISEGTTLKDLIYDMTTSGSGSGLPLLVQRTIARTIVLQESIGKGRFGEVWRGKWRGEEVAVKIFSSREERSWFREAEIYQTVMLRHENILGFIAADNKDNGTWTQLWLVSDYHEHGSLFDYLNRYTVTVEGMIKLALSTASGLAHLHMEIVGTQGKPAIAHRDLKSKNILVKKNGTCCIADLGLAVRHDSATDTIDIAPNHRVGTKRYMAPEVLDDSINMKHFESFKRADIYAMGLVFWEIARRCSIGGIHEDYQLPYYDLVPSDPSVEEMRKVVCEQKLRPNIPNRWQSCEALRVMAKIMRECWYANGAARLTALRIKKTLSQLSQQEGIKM
Protocol: Invention compounds were tested for their abilities to inhibit the phosphorylation of the substrate casein. The assay was conducted as follows: Compound dilutions and reagents were prepared fresh daily. Compounds were diluted from DMSO stock solutions to 2 times the desired assay concentration, keeping final DMSO concentration in the assay less than or equal to 1%. TGF RI kinase was diluted to 4 times the desired assay concentration in buffer and DTT. ATP and casein were diluted into 4× reaction buffer, and gamma-^32P-ATP was added at 50 μCi/mL.
The assay was performed by adding 10 μl of the enzyme to 20 μl of the compound solution. The reaction was initiated by the addition of 10 μl of the casein/ATP mix. Final assay conditions included 2.5 μM ATP, 100 μM casein, 6.4 nM TGF R1 kinase, and […] in 20 mM Tris buffer, pH 7.5. The reactions were incubated at room temperature for 45 minutes. The reactions were then stopped by transferring 23 μl of reaction mixture onto a phosphocellulose 96-well filter plate, which had been pre-wetted with 15 μl of 0.25M H3PO4 per well. After 5 minutes, the wells were washed 4× with 75 mM H3PO4 and once with 95% ethanol. The plate was dried, scintillation cocktail was added to each well, and the wells were counted in a Packard TopCount microplate scintillation counter. The ability of a compound to inhibit the enzyme was determined by comparing the counts obtained in the presence of the compound to those of the positive control (in the absence of compound) and the negative control (in the absence of enzyme).
In both of the assays referenced above, IC50 values can be determined with curve-fitting plots available with common software packages. Approximate IC50 values can be calculated using formula: IC50 (app)=A×i/(1−A) where A=fractional activity and i=total inhibitor concentration.

P-Smad 2/3 = assay: Bleomycin-induced SMAD phosphorylation in rats, phospho SMAD 2/3 ELISA of lung tissue; format: in vivo, rat; details: male Sprague-Dawley rats, intratracheal bleomycin, oral 40 mg/kg bid days 1 to 5, versus control group
Protocol: The effect of TGF-beta inhibitors on bleomycin-induced SMAD phosphorylation was studied in male Sprague-Dawley rats purchased from Charles River. Rats were housed in groups of two in the animal facility and provided with filtered air at a constant temperature and humidity. The rats were allowed to acclimate to the new environment for one week before all treatments. A 12:12 hour light-dark cycle was maintained, and the animals had free access to food and water.
To induce SMAD activation, rats were intubated with 0.5 ml of saline or 0.5 ml of 1.0 unit/ml of bleomycin by intratracheal injection under anesthesia. The anesthetic solution used was a mixture of 0.4 ml of ketamine (100 mg/ml) and 0.25 ml of xylazine (20 mg/ml) at a dose of 1.3 ml/kg.
On days 1 to 5, treated rats were weighed and orally dosed with compound 35 two-times a day at 40 mg/kg.
On Day 5, after dosing, rats were sacrificed by an overdose of the ketamine/xylazine cocktail, and then the trachea, heart and lungs of the animals were removed en bloc. All lung lobes were collected, dissected and stored in −80° C. for phospo SMAD ELISA assays.
To evaluate the effect of SMAD activation (an indicia of fibrosis), a phospho SMAD 2/3 ELISA assay was performed using the lung tissue of the sacrificed animals.

Row | Structure (SMILES) | IC50 (TGF R1 kinase) [nM] | bleomycin-induced phosphorylation of P-Smad 2/3 in the lung (P-Smad 2/3; 40 mg/kg) | bleomycin-induced phosphorylation of P-Smad 2/3 in the lung (P-Smad 2/3; listed as compound 35, 40 mg/kg)
1 | O=C(NC1CC1)c1cnccc1Nc1nc(-c2cc(Cl)ccc2F)nc2c1CCC2 [Compound 41] | 1350 |  | 
2 | CNC(=O)c1cnccc1Nc1nc(-c2ccccc2)nc2c1CCC2 [Compound 68] | 289 |  | 
3 | CC1CCCCN1CCCNC(=O)c1cnccc1Nc1nc(-c2cc(Cl)ccc2F)nc2c1CCC2 (stereo not shown) [Compound 74] | 115 |  | 
4 | CC1(C)Cc2nc(-c3cc(Cl)ccc3F)nc(Nc3ccncc3C(=O)NC[C@H](O)CO)c2C1 [Compound 65] | 2790 |  | 
5 | Cc1noc2nc(-c3cccc(Cl)c3)nc(Nc3ccncc3)c12 [Compound 3] | 780 |  | 
6 | CNC(=O)c1cnccc1Nc1nc(-c2cc(Cl)ccc2F)nc2c1CCC2 [Compound 35] | 49 | significantly reduce | reduce
7 | NNC(=O)c1cnccc1Nc1nc(-c2cc(Cl)ccc2F)nc2c1CCC2 [Compound 58] | 62.6 |  | 
8 | C[C@@H](O)CNC(=O)c1cnccc1Nc1nc(-c2cc(Cl)ccc2F)nc2c1CCC2 [Compound 55] | 639 |  | 
